From patent US8461107B2 (Merck Sharp & Dohme Corp., priority 2008, dated 2013)

Target: T1, HCV genotype 1b (BK) NS3 modified with a R155K mutation (Hepatitis C virus genotype 1b, UniProt P26663, R1181K)
T1 construct: HCV genotype 1b (BK) NS3 modified with a R155K mutation
Assay: HCV NS3 protease time-resolved fluorescence (TRF) assay, NS3 protease 1b R155K Ki activity
Format: biochemical
Conditions: HCV genotype 1b (BK) NS3 with R155K mutation; TRF peptide substrate 100 nM; Ki derived from IC50
Protocol: The HCV NS3 protease inhibitory activity of the present compounds may be tested using assays known in the art. One such assay is HCV NS3 protease time-resolved fluorescence (TRF) assay as described below and in International Patent Application Publication WO 2006/102087. Other examples of such assays are described in e.g., International Patent Application Publication WO 2005/046712.
A NS3 protease assay can be performed, for example, in a final volume of 100 μl assay buffer containing 50 mM HEPES, pH 7.5, 150 mM NaCl, 15% glycerol, 0.15% TRITON X-100, 10 mM DTT, and 0.1% PEG 8000. NS3 and NS4A protease is pre-incubated with various concentrations of inhibitors in DMSO for 30 minutes. The reaction is initiated by adding the TRF peptide substrate (final concentration 100 nM). NS3 mediated hydrolysis of the substrate is quenched after 1 hour at room temperature with 100 μl of 500 mM MES, pH 5.5. Product fluorescence is detected using either a VICTOR V2 or FUSION fluorophotometer (Perkin Elmer Life and Analytical Sciences) with excitation at 340 nm and emission at 615 nm with a 400 μs delay. Testing concentrations of different enzyme forms are selected to result in a signal to background ratio (S/B) of 10-30. IC50 values are derived using a standard four-parameter fit to the data. Ki values are derived from IC50 values using the following formula, IC50=Ki(1+[S]/KM), Eqn (1), where [S] is the concentration of substrate peptide in the reaction and KM is the Michaelis constant. See P. Gallinari et al., 38 BIOCHEM. 5620-32 (1999); P. Gallinari et al., 72 J. VIROL. 6758-69 (1998); M. Taliani et al., 240 ANAL. BIOCHEM. 60-67 (1996).
The HCV NS3 protease inhibitory activity was measured using the protease time-resolved fluorescence (TRF) assay as described below and in International Patent Application Publication WO 2006/102087. The assay was performed with HCV genotype 1b (BK) NS3 modified with a R155K mutation.
The assay was performed in a final volume of 100 μl in assay buffer containing 50 mM HEPES, pH 7.5, 150 mM NaCl, 15% glycerol, 0.15% TRITON X-100, 10 mM DTT, and 0.1% PEG 8000. NS3 and NS4A protease is pre-incubated with various concentrations of inhibitors in DMSO for 30 minutes. The reaction is initiated by adding the TRF peptide substrate (final concentration 100 nM). NS3 mediated hydrolysis of the substrate is quenched after 1 hour at room temperature with 100 μl of 500 mM MES, pH 5.5. Product fluorescence is detected using either a VICTOR V2 or FUSION fluorophotometer (Perkin Elmer Life and Analytical Sciences) with excitation at 340 nm and emission at 615 nm with a 400 μs delay. Testing concentrations of the enzyme containing the R155K mutation were selected to result in a signal to background ratio (S/B) of 10-30. IC50 values are derived using a standard four-parameter fit to the data. Ki values are derived from IC50 values using the following formula, IC50=Ki(1+[S]/KM), Eqn (1), where [S] is the concentration of substrate peptide in the reaction and KM is the Michaelis constant. See P. Gallinari et al., 38 BIOCHEM. 5620-32 (1999); P. Gallinari et al., 72 J. VIROL. 6758-69 (1998); M. Taliani et al., 240 ANAL. BIOCHEM. 60-67 (1996).

SMILES | Ki [pM]
C=C[C@@H]1C[C@]1(NC(=O)[C@@H]1C[C@@H]2CN1C(=O)[C@H](C1CCCC1)NC(=O)O[C@@H]1CCC[C@H]1CCCCCn1c(nc3cc(OC)ccc3c1=O)O2)C(=O)NS(=O)(=O)C1(C)CC1 [(1R,18R,22R,26S,29S)-26-cyclopentyl-7-methoxy-N-[(1R,2S)-1-({[(1-methylcyclopropyl)sulfonyl]amino}carbonyl)-2-vinylcyclopropyl]-11,24,27-trioxo-2,23-dioxa-4,12,25,28-tetraazapentacyclo[26.2.1.0^3,12.0^5,10.0^18,22]hentriaconta-3,5,7,9-tetraene-29-carboxamide] | < 100
CC[C@@H]1C[C@]1(NC(=O)[C@@H]1C[C@@H]2CN1C(=O)[C@H](C1CCCC1)NC(=O)O[C@@H]1C[C@H]1CCCCCn1c(cc3ccccc3c1=O)O2)C(=O)NS(=O)(=O)C1CC1 [(1aR,5S,8S,10R,23aR)-5-cyclopentyl-N-((1R,2R)-1-{[(cyclopropylsulfonyl)amino]carbonyl}-2-ethylcyclopropyl)-3,6,17-trioxo-1,1a,3,4,5,6,9,10,19,20,21,22,23,23a-tetradecahydro-8H,17H-7,10-methanocyclopropa[18,19][1,10,3,6,12]dioxatriazacyclononadecino[12,11-b]isoquinoline-8-carboxamide] | 100 to 500
C=C[C@@H]1C[C@]1(NC(=O)[C@@H]1C[C@@H]2CN1C(=O)[C@H](C1CCCC1)NC(=O)O[C@@H]1C[C@H]1CCCCCn1c(cc3ccccc3c1=O)O2)C(=O)NS(=O)(=O)C1CC1 [(1aR,5S,8S,10R,23aR)-5-cyclopentyl-N-((1R,2S)-1-{[(cyclopropylsulfonyl)amino]carbonyl}-2-vinylcyclopropyl)-3,6,17-trioxo-1,1a,3,4,5,6,9,10,19,20,21,22,23,23a-tetradecahydro-8H,17H-7,10-methanocyclopropa[18,19][1,10,3,6,12]dioxatriazacyclononadecino[12,11-b]isoquinoline-8-carboxamide] | < 100
CC[C@@H]1C[C@]1(NC(=O)[C@@H]1C[C@@H]2CN1C(=O)[C@H](C1CCCC1)NC(=O)O[C@H]1C[C@@H]1CCCCCn1c(cc3ccccc3c1=O)O2)C(=O)NS(=O)(=O)C1CC1 [(1aS,5S,8S,10R,23aS)-5-cyclopentyl-N-((1R,2R)-1-{[(cyclopropylsulfonyl)amino]carbonyl}-2-ethylcyclopropyl)-3,6,17-trioxo-1,1a,3,4,5,6,9,10,19,20,21,22,23,23a-tetradecahydro-8H,17H-7,10-methanocyclopropa[18,19][1,10,3,6,12]dioxatriazacyclononadecino[12,11-b]isoquinoline-8-carboxamide] | 100 to 500
C=C[C@@H]1C[C@]1(NC(=O)[C@@H]1C[C@@H]2CN1C(=O)[C@H](C1CCCC1)NC(=O)O[C@H]1C[C@@H]1CCCCCn1c(cc3ccccc3c1=O)O2)C(=O)NS(=O)(=O)C1CC1 [(1aS,5S,8S,10R,23aS)-5-cyclopentyl-N-((1R,2S)-1-{[(cyclopropylsulfonyl)amino]carbonyl}-2-vinylcyclopropyl)-3,6,17-trioxo-1,1a,3,4,5,6,9,10,19,20,21,22,23,23a-tetradecahydro-8H,17H-7,10-methanocyclopropa[18,19][1,10,3,6,12]dioxatriazacyclononadecino[12,11-b]isoquinoline-8-carboxamide] | 100 to 500
CC[C@@H]1C[C@]1(NC(=O)[C@@H]1C[C@@H]2CN1C(=O)[C@H](C1CCCC1)NC(=O)O[C@@H]1CCC[C@H]1CC/C=C/Cn1c(nc3ccccc3c1=O)O2)C(=O)NS(=O)(=O)C1CC1 [(3aR,7S,10S,12R,22E,25aS)-7-cyclopentyl-N-((1R,2R)-1-{[(cyclopropylsulfonyl)amino]carbonyl}-2-ethylcyclopropyl)-5,8,19-trioxo-1,2,3,3a,5,6,7,8,11,12,21,24,25,25a-tetradecahydro-10H,19H-9,12-methanocyclopenta[18,19][1,10,3,6,12]dioxatriazacyclononadecino[11,12-b]quinazoline-10-carboxamide] | 100 to 500
CC[C@@H]1C[C@]1(NC(=O)[C@@H]1C[C@@H]2CN1C(=O)[C@H](C1CCCC1)NC(=O)O[C@@H]1CCC[C@H]1CC/C=C/Cn1c(nc3cc(C(F)(F)F)ccc3c1=O)O2)C(=O)NS(=O)(=O)C1CC1 [(3aR,7S,10S,12R,22E,25aS)-7-cyclopentyl-N-((1R,2R)-1-{[(cyclopropylsulfonyl)amino]carbonyl}-2-ethylcyclopropyl)-5,8,19-trioxo-16-(trifluoromethyl)-1,2,3,3a,5,6,7,8,11,12,21,24,25,25a-tetradecahydro-10H,19H-9,12-methanocyclopenta[18,19][1,10,3,6,12]dioxatriazacyclononadecino[11,12-b]quinazoline-10-carboxamide] | < 100
CC[C@@H]1C[C@]1(NC(=O)[C@@H]1C[C@@H]2CN1C(=O)[C@H](C1CCCC1)NC(=O)O[C@@H]1CCC[C@H]1CC/C=C/Cn1c(nc3cc(-c4ccccc4)ccc3c1=O)O2)C(=O)NS(=O)(=O)C1CC1 [(3aR,7S,10S,12R,22E,25aS)-7-cyclopentyl-N-((1R,2R)-1-{[(cyclopropylsulfonyl)amino]carbonyl}-2-ethylcyclopropyl)-5,8,19-trioxo-16-phenyl-1,2,3,3a,5,6,7,8,11,12,21,24,25,25a-tetradecahydro-10H,19H-9,12-methanocyclopenta[18,19][1,10,3,6,12]dioxatriazacyclononadecino[11,12-b]quinazoline-10-carboxamide] | 100 to 500
CC[C@@H]1C[C@]1(NC(=O)[C@@H]1C[C@@H]2CN1C(=O)[C@H](C1CCCC1)NC(=O)O[C@@H]1CCC[C@H]1CC/C=C/Cc1c(nc3ccccn3c1=O)O2)C(=O)NS(=O)(=O)C1CC1 [(3aR,7S,10S,12R,22E,25aS)-7-cyclopentyl-N-((1R,2R)-1-{[(cyclopropylsulfonyl)amino]carbonyl}-2-ethylcyclopropyl)-5,8,20-trioxo-1,2,3,3a,5,6,7,8,11,12,21,24,25,25a-tetradecahydro-10H,20H-9,12-methanocyclopenta[r]pyrido[1′,2′:1,2]pyrimido[4,5-k][1,10,3,6]dioxadiazacyclononadecine-10-carboxamide] | 100 to 500
CC[C@@H]1C[C@]1(NC(=O)[C@@H]1C[C@@H]2CN1C(=O)[C@H](C1CCCC1)NC(=O)O[C@@H]1CCC[C@H]1CC/C=C/Cn1c(nc3c(OC)cccc3c1=O)O2)C(=O)NS(=O)(=O)C1CC1 [(3aR,7S,10S,12R,22E,25aS)-7-cyclopentyl-N-((1R,2R)-1-{[(cyclopropylsulfonyl)amino]carbonyl}-2-ethylcyclopropyl)-15-methoxy-5,8,19-trioxo-1,2,3,3a,5,6,7,8,11,12,21,24,25,25a-tetradecahydro-10H,19H-9,12-methanocyclopenta[18,19][1,10,3,6,12]dioxatriazacyclononadecino[11,12-b]quinazoline-10-carboxamide] | 100 to 500
CC[C@@H]1C[C@]1(NC(=O)[C@@H]1C[C@@H]2CN1C(=O)[C@H](C1CCCC1)NC(=O)O[C@@H]1CCC[C@H]1CC/C=C/Cn1c(nc3cc(S(C)(=O)=O)ccc3c1=O)O2)C(=O)NS(=O)(=O)C1CC1 [(3aR,7S,10S,12R,22E,25aS)-7-cyclopentyl-N-((1R,2R)-1-{[(cyclopropylsulfonyl)amino]carbonyl}-2-ethylcyclopropyl)-16-(methylsulfonyl)-5,8,19-trioxo-1,2,3,3a,5,6,7,8,11,12,21,24,25,25a-tetradecahydro-10H,19H-9,12-methanocyclopenta[18,19][1,10,3,6,12]dioxatriazacyclononadecino[11,12-b]quinazoline-10-carboxamide] | < 100
